Experimental data taken from US5252579A, “Macrocyclic immunomodulators” (American Home Products Corporation, priority 1993, dated 1993).
pIC50: −log10 of the molar value. Where two headings read alike, the source gives them in different places.

Columns and labels:
[1] = system: thymocyte proliferation; experiment: comitogen-induced thymocyte proliferation procedure (LAF); type: cell-based, BALB/c mice; conditions: for pIC50: read-out: LAF IC50
Method: (§1) Immunosuppressive activity for a representative compound of this invention was evaluated in an in vitro standard pharmacological test procedure to measure lymphocyte proliferation (LAF) and in an in vivo standard pharmacological test procedure with evaluated the survival time of a pinch skin graft.
The comitogen-induced thymocyte proliferation procedure (LAF) was used as an […] measure of the immunosuppressive effects of representative compounds. Briefly, cells from the thymus of normal BALB/c mice are cultured for 72 hours with PHA and IL-1 and pulsed with tritiated thymidine during the last six hours. Cells are cultured with and without various concentrations of rapamycin, cyclosporin A, or test compound. Cells are harvested and incorporated radioactivity is determined. Inhibition of lymphoproliferation is assessed as percent change in counts per minute from non-drug treated controls. For each compound evaluated, rapamycin was also evaluated for the purpose of comparison. An IC50 was obtained for each test compound as well as for rapamycin. The results obtained for the representative compounds of this invention were also expressed as a ratio compared with rapamycin. A positive ratio indicates immunosuppressive activity. […] Calculation of the ratio is shown below. [formula]

[2] = system: skin graft; experiment: pinch skin graft survival test procedure; type: in vivo, male BAB/c donors, male C3H(H-2K) recipients; conditions: 4 mg/kg of test compound; intraperitoneally or orally; untreated control 7.00 ± 0.00 days
Method: as §1
A representative compound of this invention was also evaluated in an in vivo test procedure designed to determine the survival time of pinch skin graft from male BAB/c donors transplanted to male C3 H(H-2K) recipients. The method is adapted from Billingham R. E. and Medawar P. B., J. Exp. Biol. 28:385-402, (1951). Briefly, a pinch skin graft from the donor was grafted on the dorsum of the recipient as a allograft, and an isograft was used as control in the same region. The recipients were treated with either varying concentrations of test compounds intraperitoneally or orally. Rapamycin was used as a test control. Untreated recipients serve as rejection control. The graft was monitored daily and observations were recorded until the graft became dry and formed a blackened scab. This was considered as the rejection day. The mean graft survival time (number of days±S.D.) of the drug treatment group was compared with the control group. […] Results are expressed as the mean survival time in days. Untreated (control) pinch skin grafts are usually rejected within 6-7 days. […]

[3] = system: IgE-like antibodies; conditions: cited from earlier work
[4] = system: Candida albicans; conditions: both in vitro and in vivo; cited from earlier work
[5] = alone or in combination with picibanil; cited from earlier work
[6] = system: adjuvant arthritis model; conditions: model for rheumatoid arthritis; cited from earlier work
[7] = system: experimental allergic encephalomyelitis model; conditions: model for multiple sclerosis; cited from earlier work

## 23,25-Deepoxy-23,25-(2-aminoethanethio)-rapamycin [Example 2]
[1]; at 10 nM
  T cell proliferation inhibition: 77%
[1]; at 0.1 μM
  T cell proliferation inhibition: 96%
[1]; ratio > 1: inhibits thymocyte proliferation to a greater extent than rapamycin
  LAF ratio (compared with rapamycin): 0.82
[1]; thymocytes cultured 72 hours with PHA and IL-1, tritiated thymidine
  pIC50: 8.29
[2]
  Skin Graft survival (days ± SD): 9.00 ± 0.63 days

## CO[C@H]1C[C@@H]2CC[C@@H](C)[C@@](O)(O2)C(=O)C(=O)N2CCCC[C@H]2C(=O)O[C@H]([C@H](C)C[C@@H]2CC[C@@H](O)[C@H](OC)C2)CC(=O)[C@H](C)/C=C(\C)[C@@H](O)[C@@H](OC)C(=O)[C@H](C)C[C@H](C)/C=C/C=C/C=C/1C [Rapamycin]
[1]; Mus musculus, Thymocyte, 72 h
  pIC50: 8.38
[3]
  inhibition of formation of IgE-like antibodies: effectively inhibited
[4]
  antifungal activity: antifungal activity, particularly against Candida albicans
[5]
  antitumor activity: antitumor activity
[6]
  effect in adjuvant arthritis model: effective
[7]
  effect in experimental allergic encephalomyelitis model: effective
[2]
  Skin Graft survival (days ± SD): 11.67 ± 0.63 days
